Measured values published in US20040072865A1, “Aryl piperidine derivatives as inducers of ldl-receptor expression” (priority 2003, published 2004).
Read-outs that look alike come from different tables or passages of the source.

Legend:
LDL-r promoter = LDL-r promoter luciferase reporter gene assay in stably transfected HepG2 cells; type: cell-based, human; conditions: read-out: In vitro (IC50)
fat-fed hamsters = experiment: Oral administration to fat-fed hamsters, reduction in VLDL/LDL cholesterol and TG plasmatic levels; type: in vivo, hamster; conditions: for ED50: Mesocricetus auratus, 72 h, fat-fed hamsters, oral, once a day for 3 days, reductions in VLDL/LDL cholesterol and TG plasmatic levels, read-out: In vivo (ED50)
Procedure: The in vivo profile of the compounds is evaluated by oral administration of the compounds of the invention to fat-fed hamsters. Measurements of VLDL/LDL cholesterol and triglycerides upon treatment allow to determine the activity.
Compounds were prepared for oral administration by milling with 0.5% hydroxypropylmethylcellulose and 5% Tween 80. Hamsters were fed for 2 weeks with a diet containing 0.2% of cholesterol and 10% of coconut oil. Then compounds were administrated once a day for 3 days, from 20 to 0.2 mg/kg. Plasma lipid levels including total cholesterol, VLDL/LDL cholesterol, VLDL/LDL triglycerides and HDL-cholesterol were determinated after ultracentrifugation (density 1.063 g/ml to separate VLDL/LDL fraction and HDL fraction) using the Biomerieux erizymatic kit. Reductions in VLDL/LDL cholesterol and TG plasmatic levels were calculated taking solvant treated animals as control and ED50 of each compound was determined.

Which melting point does the source give for `CCOP(=O)(OCC)Oc1cc(CC)ccc1C1CCN(CCCCNC(=O)c2ccc(NC(=O)c3ccc(Cl)cc3)cc2)CC1` here?
Its melting point is 158 to 160 °C.

Which melting point does the source give for `Cc1ccc(C2CCN(CCCCNC(=O)c3ccc(-c4ccc(C#N)cc4)cc3)CC2)c(OP(=O)(O)O)c1` here?
The melting point was 70 °C.

With `CC(=O)Oc1cc(C)ccc1C1CCN(CCCCNC(=O)c2ccc(-c3ccc(C#N)cc3)cc2)CC1` [Example 21, Acetic Acid 2-(1-{4-[(4′-cyano-biphenyl-4-carbonyl)-amino]-butyl}-piperidin-4-yl)-5-methyl-phenyl Ester] as the compound, how does the melting point read?
The melting point was 128 to 130 °C.

What does the source list for `CCOP(=O)(OCC)Oc1cc(C)ccc1C1CCN(CCCCNC(=O)c2ccc(NC(=O)c3ccc(Cl)cc3)cc2)CC1` [Example 3, Phosphoric Acid 2-(1-{4-[4-(4-chloro-benzoylamino)-benzoylamino]-butyl}-piperidin-4-yl)-5-methyl-phenyl Ester Diethyl Ester]?
IC50 (LDL-r promoter; Homo sapiens, HepG2 cells with LDL-r promoter-luciferase construct, 24 hours incubation, induction of luciferase activity): 30 nM; ED50 (fat-fed hamsters): 5 mg/kg; melting point: 230 °C

Which melting point does the source give for `CCc1ccc(C2CCN(CCCCNC(=O)c3ccc(-c4ccc(C#N)cc4)cc3)CC2)c(O)c1` [Example 6, 4′-Cyano-biphenyl-4-carboxylic Acid {4-[4-(2-hydroxy-4-ethyl-phenyl)-piperidin-1-yl]-butyl}-amide] here?
The melting point was 252 °C.

For `Cc1ccc(C2CCN(CCCCNC(=O)c3ccc(NC(=O)c4ccc(Cl)cc4)cc3)CC2)c(O)c1.Cl` [Example 1, 4-(4-chloro-benzoylamino)-N-{4-[4-(5-methyl-2-piperidinyl-phenol)]-butyl}-benzamide Hydrochloride], which IC50 (LDL-r promoter) is on record?
Its IC50 is 30 nM.

And the “In vivo (ED50)” value (fat-fed hamsters; hamster, in vivo, po)?
The value was 10 to 15 mg/kg.

With `CCc1ccc(C2CCN(CCCCNC(=O)c3ccc(NC(=O)c4ccc(Cl)cc4)cc3)CC2)c(OC(C)=O)c1` [Example 5, Acetic Acid 2-(1-{4-[4-(4-chloro-benzoylamino)-benzoylamino]-butyl}-piperidin-4-yl)-5-ethyl-phenyl Ester] as the compound, how does the melting point read?
The melting point was 192 to 194 °C.

Which ED50 (fat-fed hamsters) does the source give for `CC(=O)Oc1cc(C)ccc1C1CCN(CCCCNC(=O)c2ccc(NC(=O)c3ccc(Cl)cc3)cc2)CC1` [Example 2, Acetic Acid 2-(1-{4-[4-(4-chloro-benzoylamino)-benzoylamino]-butyl}-piperidin-4-yl)-5-methyl-phenyl Ester] here?
The ED50 was 5 mg/kg.

What about the melting point of the same compound?
The melting point was 210 °C.

Which melting point does the source give for `Cc1ccc(C2CCN(CCCCNC(=O)c3ccc(-c4ccc(C#N)cc4)cc3)CC2)c(O)c1` [Example 20, 4′-Cyano-biphenyl-4-carboxylic Acid {4-[4-(2-hydroxy-4-methyl-phenyl)-piperidin-1-yl]-butyl}-amide] here?
Its melting point is 184 °C.
